Experimental findings from publication PMC5317395, “Structure and inhibitor specificity of the PCTAIRE-family kinase CDK16” (Biochemical Journal, 2017) are described below.

One assay deals with T1, CDK16 (Homo sapiens, UniProt Q00536). The assay can be described thus: […] kinase assay with PCTAIRE-tide; also DSF ΔTm […] °C. It counts as biochemical. More on the design: E. coli-purified human CDK16 (kinase assay); 163–478 S319D in DSF; with cyclin Y (with endogenous 14-3-3).
T1 sequence (Q00536 whole entry): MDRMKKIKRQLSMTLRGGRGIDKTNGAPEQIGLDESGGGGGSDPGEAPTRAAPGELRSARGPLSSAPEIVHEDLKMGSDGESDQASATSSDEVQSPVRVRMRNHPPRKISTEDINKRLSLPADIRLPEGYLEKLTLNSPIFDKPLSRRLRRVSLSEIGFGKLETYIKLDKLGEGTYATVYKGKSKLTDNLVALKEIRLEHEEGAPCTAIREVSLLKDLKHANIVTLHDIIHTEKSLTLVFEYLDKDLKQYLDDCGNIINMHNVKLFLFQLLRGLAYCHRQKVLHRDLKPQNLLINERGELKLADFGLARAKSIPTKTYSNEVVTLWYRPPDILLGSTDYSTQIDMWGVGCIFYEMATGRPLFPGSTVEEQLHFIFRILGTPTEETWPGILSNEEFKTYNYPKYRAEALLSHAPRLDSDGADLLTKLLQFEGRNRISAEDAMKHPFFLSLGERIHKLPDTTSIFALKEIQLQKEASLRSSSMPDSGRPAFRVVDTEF
T1 sequence (Q8ND76 2-341 partner): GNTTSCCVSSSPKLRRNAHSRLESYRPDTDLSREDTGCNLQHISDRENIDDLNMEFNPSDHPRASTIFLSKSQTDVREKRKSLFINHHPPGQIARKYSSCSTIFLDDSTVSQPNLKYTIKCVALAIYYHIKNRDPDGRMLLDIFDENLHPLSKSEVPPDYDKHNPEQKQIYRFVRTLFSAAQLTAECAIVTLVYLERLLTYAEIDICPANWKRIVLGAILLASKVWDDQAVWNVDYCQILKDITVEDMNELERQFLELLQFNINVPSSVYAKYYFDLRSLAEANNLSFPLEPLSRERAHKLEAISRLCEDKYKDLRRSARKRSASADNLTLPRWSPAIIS
Conditions: not given
Broadly, the IC50 is the concentration needed to halve the response being measured. Compound `CC(C)(C)c1nc(-c2cccc(NS(=O)(=O)c3c(F)cccc3F)c2F)c(-c2ccnc(N)n2)s1` [dabrafenib] gave a half-maximal inhibitory concentration (IC50) of 35 nM.

The target in a further assay is T1, CDK16. The assay can be described thus: co-crystal structure ([…] Å); also DSF ΔTm […] °C, kinase assay IC50 (E. coli CDK16 + cyclin Y/[…]-3-3), CETSA. It is filed as biochemical. Also on record: PCTAIRE-tide substrate.
Conditions: not given
As for `CNC(=O)c1cc(Oc2ccc(NC(=O)Nc3cc(C(C)(C)C)nn3-c3ccc4ncccc4c3)c(F)c2)ccn1` [rebastinib], the half-maximal inhibitory concentration (IC50) was 32 nM.

In the next assay the target is T1, CDK16. Put plainly: co-crystal structure ([…] Å); also DSF ΔTm […] °C, kinase assay IC50 (E. coli CDK16 + cyclin Y/[…]-3-3). It is filed as biochemical. Also on record: PCTAIRE-tide substrate.
Conditions: not given
On to `O=C1Nc2ccccc2/C1=C1/Nc2ccccc2/C1=N\OCCC(O)CO` (stereo not drawn) [indirubin E804], for which the concentration for half-maximal inhibition (IC50) turned out to be 83 nM.

The next assay deals with T2, CDK16 (Homo sapiens, UniProt Q00536, S319D).
T2 construct: kinase domain, CDK16 163–478, C-terminal His tag
T2 sequence (Q00536 163-478 S319D): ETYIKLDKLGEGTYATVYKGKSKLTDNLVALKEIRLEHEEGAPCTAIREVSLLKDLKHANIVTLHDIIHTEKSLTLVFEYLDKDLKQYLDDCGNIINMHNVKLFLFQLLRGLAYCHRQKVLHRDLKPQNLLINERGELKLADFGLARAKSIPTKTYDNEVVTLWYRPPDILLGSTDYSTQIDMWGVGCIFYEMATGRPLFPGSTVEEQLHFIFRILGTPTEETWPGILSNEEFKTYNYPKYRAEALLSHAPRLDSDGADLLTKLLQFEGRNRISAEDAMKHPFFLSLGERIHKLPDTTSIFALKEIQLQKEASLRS
The assay can be described thus: biochemical. Also on record: Differential scanning fluorimetry (SYPRO Orange), 2 uM CDK16, Tm shift versus 2.5% DMSO control. As to conditions: 12.5 µM; binder; Tm shift (°C). Here is the method:
Thermal melting experiments were performed using a Real-Time PCR machine Mx3005p (Stratagene) as described previously. Briefly, 2 μM CDK16 was screened against a collection of kinase inhibitors in a 96-well plate format. […] Data were analysed with the MxPro software. […] To identify protein constructs suitable for structural studies, human CDK16 was recombinantly expressed in E. coli with a variety of N- and C-terminal truncations. […] To identify potential inhibitors of CDK16, we screened the recombinant protein kinase domain against many inhibitor libraries using differential scanning fluorimetry (DSF). Ligands in this assay increase a protein's melting temperature (Tm shift, ΔTm) by an amount proportional to their binding affinity. […] Rebastinib is a multitargeted type II kinase inhibitor that was developed to inhibit BCR-ABL as well as the drug-resistant gatekeeper mutant ABL^T315I (Figure 1). It has entered phase I clinical trials for chronic myeloid leukaemia.
With `CN1CCC(C(=O)Nc2n[nH]c3nc(-c4ccc(O)cc4)c(Br)cc23)CC1` [SB-732881], the “Tm shift (°C)” value was 5.2 °C.

Staying with this assay, now noted: read-out: Tm shift (°C).
With `CC(C)COC(=O)c1ccc2c(c1)/C(=C/Nc1ccc(S(N)(=O)=O)cc1)C(=O)N2` [GW416981X], the ΔTm at 12.5 µM was 8.7 °C. Still for that read-out and setting: the same measure for `O=C(O[C@H]1CN[C@H](C#Cc2cc3ncnc(Nc4ccc(Cc5ccccc5)cc4)c3s2)C1)N1CCOCC1` [GSK238583A]: 5.8 °C. Consider `CC(C)Oc1cc(Nc2nc(N[C@@H](C)c3ccc(F)cn3)ncc2Cl)n[nH]1` [AZ23], for which the ΔTm at 12.5 µM worked out at 5.8 °C. Same read-out and setting: with `O=C(Nc1c[nH]nc1-c1nc2ccc(CN3CCOCC3)cc2[nH]1)NC1CC1` [AT9283] the figure was 5.7 °C. The same measure, in the same setting: with `CCN1CCC(CC(=O)Nc2n[nH]c3nc(-c4cccs4)c(Br)cc23)CC1` [SB-739245-AC] the figure was 5.4 °C; with `Nc1nc(Nc2ccc(S(N)(=O)=O)cc2)nn1C(=S)Nc1c(F)cccc1F` [Cdk1/2 Inhibitor III], 9.6 °C. Same read-out and setting: the same measure for `N#CCCc1ccc2c(c1)-c1[nH]c3ccc([N+](=O)[O-])cc3c1CC(=O)N2` [Alsterpaullone, 2-Cyanoethyl]: 7.9 °C; for `NS(=O)(=O)c1ccc(NN=C2C(=O)Nc3ccc(C(=O)NCc4ccncc4)cc32)cc1` [GW300657X]: 8.8 °C; for `CN1CCC(C(=O)Nc2n[nH]c3nc(-c4ccc(O)cc4)c(Br)cc23)CC1` [SB-732881-H]: 5.5 °C. For the compound `O=Nc1c(-c2c(O)[nH]c3ccc(S(=O)(=O)O)cc23)[nH]c2ccccc12` [Indirubin-3′-monoxime-5-sulphonic acid], the ΔTm at 12.5 µM turned out to be 6.7 °C. Still for that read-out and setting: with `O=Nc1c(-c2c(O)[nH]c3ccc(I)cc23)[nH]c2ccccc12` [5-Iodo-indirubin-3′-monoxime] the figure was 6.1 °C. The same measure, in the same setting: the same measure for `CCN(CC)Cc1ccc(Nc2nccc(-c3cnn4ncccc34)n2)cc1` [GW780056X]: 4.8 °C; for `O=C1Nc2ccccc2/C1=C\c1cnc[nH]1` [(Z,E)-3-(imidazol-4-ylmethylene)indolin-2-one]: 6.7 °C. On to `Cc1nc(N)sc1-c1ccnc(Nc2cccc([N+](=O)[O-])c2)n1` [Cdk2/9 Inhibitor], for which the ΔTm at 12.5 µM was determined as 7.2 °C. In the case of `CC(C)(CO)CNC(=O)c1ccc2c(c1)/C(=N/Nc1ccc(S(N)(=O)=O)cc1)C(=O)N2` [GW301784X], the ΔTm at 12.5 µM stood at 6 °C.

For `CNC(=O)c1cc(Oc2ccc(NC(=O)Nc3cc(C(C)(C)C)nn3-c3ccc4ncccc4c3)c(F)c2)ccn1` [rebastinib], the ΔTm at 12.5 µM was 12.6 °C.

Regarding `O=C1Nc2ccccc2/C1=C1/Nc2ccccc2/C1=N\OCCC(O)CO` (stereo not drawn) [indirubin E804], the ΔTm at 12.5 µM came to 7.6 °C. Still for that read-out and setting: with `CC(C)(C)c1nc(-c2cccc(NS(=O)(=O)c3c(F)cccc3F)c2F)c(-c2ccnc(N)n2)s1` [dabrafenib] the figure was 10.4 °C; with `CNC(=O)c1nn(C)c2c1C(C)(C)Cc1cnc(Nc3ccc(N4CCN(C)CC4)cc3)nc1-2` [Milciclib], 6.2 °C. Same read-out and setting: the same measure for `CNC(=O)c1cc(Oc2ccc(NC(=O)Nc3ccc(Cl)c(C(F)(F)F)c3)c(F)c2)ccn1` [Regorafenib]: 4.1 °C; for `Cc1ccc([N+](=O)[O-])cc1S(=O)(=O)N(C)/N=C/c1cnc2ccc(Br)cn12` [PIK-75]: 4.7 °C; for `NS(=O)(=O)c1ccc(N/N=C2\C(=O)Nc3ccc(C(=O)NCCc4c[nH]cn4)cc32)cc1` [GW300660X]: 6.8 °C. For `COc1ccc2c(c1)/C(=C/c1cnc[nH]1)C(=O)N2` [SU9516], the ΔTm at 12.5 µM came to 6 °C.
